One series relates to whole blood cells. The series can be described thus: 7-AAD staining, percentage of dead cells in whole blood. It counts as cell-based. The conditions noted are these: up to 0.2% EMPIGEN BB with CD19-SNv428, 7-AAD. The protocol:
The percentage of dead cells in whole blood sample with the 7-AAD was evaluated. 7-AAD is a DNA marker, the staining is positive when the cellular membrane is permeabilized. CD19-SNv428 D19-094 without EMPIGEN BB®@(negative control) and with 0.06%, 0.12%, and 0.2% EMPIGEN BB®, was tested on four donors' whole blood, with the 7-ADD, to evaluate the percentage of dead cells in each condition. The goal of the experiment was to verify if the percentage of dead cells is not increased by the EMPIGEN BB® concentration.
Two whole blood samples that had been preserved for greater than 24 hours were added as positive control of 7-AAD staining.
Protocol for 7-AAD staining: • 100 μl whole blood+10 μl CD19-SNv428+/−Empigen, incubation 20 minutes. • Lyse with Versalyse, one wash, • Resuspension in 500 μl PBS 1× • Add 20 μl of 7-AAD (Ref B88526), incubation 15-20 minutes • Navios flow cytometer acquisition: FL4 for 7-AAD and FL9 for CD19-SNv428

For series [1] the following is noted: 20-25° C.; cited from earlier work.
The test system of series [2] is monocytes. The series can be described thus: Monocyte background (non-specific binding) of SN 428 conjugates with EMPIGEN BB, whole blood flow cytometry. It counts as cell-based. The conditions noted are these: 0.06 to 0.20% Empigen BB vs absence of surfactant, FIG. 11. The protocol:
(§1) The efficiency of zwitterionic surfactant EMPIGEN BB® on the reduction of non-specific binding with monocytes was evaluated. Other populations were also studied, namely lymphocytes and granulocytes, to evaluate the non-impact of the detergent on MFI and percentage of cells.
(§2) The experimental conditions were generally as follows: • CD19-SN 428 (lot D19-094, polymer lot RDS-042919 (82.7 kD), 1 dose (0.5 μg/test). • CD22-SN 428 (lot D19-109, polymer lot WX-20190624 (86.4 kD), 1 dose (0.5 μg/test). • CD25-SN 428 (lot D19-107, polymer lot RDS-062419 (72.8 kD), 1 dose (0.5 μg/test). • CD19, CD22 and CD25-BV 421 from Becton Dickinson at 1× commercial dose. • Three doses of EMPIGEN BB®0.06%, 0.12%, and 0.2% prepared in conjugate final formulation. • Added 10 μL sample with 100 μL whole blood. • Tested on 2 donors lysing with VersaLyse (lysing solution, used to lyse red blood cells, Beckman Coulter, Inc.)+Fix, one wash. • Navios flow cytometer acquisition on FL9.
(§3) The required x number of tubes were prepared, wherein “x number of tubes” depends on the performance tested. A calculated volume of conjugated antibody (at required dose) was added to each tube. Whole blood (100 μL) was added in each tube. The tubes were gently vortexed for 15 seconds and incubated for 15 to 20 minutes at room temperature at 18-25° C. and protected from light. […]
A general note: A flow cytometer gives signals particle by particle.

In series [3] the test system is granulocytes. Nature of the series: Anionic surfactant NLS, non-specific staining of CD20-SN v605 on granulocytes, peripheral blood flow cytometry. The conditions noted are these: CD20-SN v605, buffer with BSA, sodium azide and NLS, FIG. 17B. It counts as cell-based. The protocol:
(§4) In this example, different concentrations (0.16%, 0.08%, 0.04% and 0.02% w/v) of NLS was formulated with SN v605 CD20 conjugate in the presence of BSA and sodium azide and stained peripheral blood samples. Flow cytometry was performed following sample staining.

A further series has as its system positive lymphocytes. The series can be described thus: Positive lymphocyte signal of SN 428 conjugates with EMPIGEN BB, whole blood flow cytometry. It counts as cell-based. Conditions: compared to the condition without EMPIGEN. The protocol:
as §1, §2, §3

Series [4] concerns monocytes. The series can be described thus: Anionic surfactant NLS, non-specific staining of CD20-SN v605 on monocytes, peripheral blood flow cytometry. It counts as cell-based. The conditions noted are these: CD20-SN v605, buffer with BSA, sodium azide and Empigen BB, FIG. 17B. The protocol: as §4
The test system of series [5] is granulocytes. Nature of the series: Non-specific binding of SN 605-CD20 and SN 786-CD103 conjugate lots to granulocytes with and without EMPIGEN BB (MdFI, dot plots). It counts as cell-based. Conditions: with vs without surfactant (EMPIGEN BB), FIG. 3 and FIG. 6. The protocol: In order to confirm the effect of EMPIGEN BB®, two lots of SN 605-CD20 conjugates were tested in the presence and absence of EMPIGEN BB®. The mean fluorescence intensity (MFI) was compared to the autofluorescence (negative population median fluorescence intensity (MdFI)) of the monocytes from the unstained sample.
Two lots of SN 786-CD103 conjugates were tested in presence and absence of EMPIGEN BB® and the autofluorescence (negative population MdFI) of the monocyte and granulocyte population is compared against an unstained sample.

A short description of series [6]: Empigen BB concentration in conjugate formulation and during staining versus CMC. Type of series: physicochemical. The protocol: The micellar concentration was studied in samples and during the staining to be sure not to exceed critical micellar concentration (CMC). […] CMC was studied in the conjugate formulation and during the staining in 100 μL whole blood. Experiments were conducted to evaluate the impact of addition of EMPIGEN BB® on whole blood cell integrity and also on peripheral blood mononuclear cells (PMBCs).

Another series concerns monocytes/granulocytes. Nature of the series: Blood sample stained with unconjugated polymer dye SN v605 with and without Empigen BB, flow cytometry. Type of series: cell-based. The conditions noted are these: SN v605 without antibody, with EMPIGEN BB, FIG. 2. The text has this: A blood sample was stained with unconjugated polymer dye SN v605 (without antibody), with and without Empigen BB®, and analyzed in a flow cytometer. […] In FIG. 2, the fluorescent polymer dye SN v605 without antibody was used to stain a blood sample and analyzed in a flow cytometer. […] While not wishing to be bound by any specific theory, it is thought that the polymer is likely adsorbing on the cell surface of monocytes and granulocytes.

The subject of the next series is granulocytes/monocytes. The series can be described thus: Protein blockers, non-specific interactions of SN v605-CD20 conjugate with granulocytes/monocytes. It counts as cell-based. The text has this: The issue of non-specific interaction on monocytes was also observed with conventional tandem dyes (e.g., PC5, PC5.5, PC7, AA700 available from Beckman Coulter, Inc.). To overcome this issue, it was thought that BSA-ox (oxidized BSA) and BSA-Cy5-ox (oxidized Cy5-BSA), which are known protein blockers, might prevent non-specific binding.

Entries after “also recorded” stand apart in the source; their conditions may differ. Where only a bound is given, the exact number is not on record here.

As to `CCCCCCCCCCCC[N+](C)(C)CC(=O)[O-]` [EMPIGEN BB®, N,N-dimethyl-N-dodecylglycine betaine], in the series on whole blood cells, the “percentage of dead cells / whole blood cell death” value was “does not induce whole blood cell permeabilization or death; also recorded: didn't induce whole blood cell death; also recorded: not substantially increased”. In addition, the CMC in series [1] is 1.6 to 2.1 mM. Also, in the series on monocytes [2], the “non-specific monocyte interactions (negative monocyte MFI)” value is listed as “lower percent of non-specific monocyte interactions”. In the series on granulocytes [3], the “% population in the gate Grans Non-specific binding” value is recorded as 0.68%. Also, the “variation of the positive signal on lymphocytes” value in the series with positive lymphocytes is reported as “did not induce a significant variation”. The “% population in the gate Mons Non-specific binding” value with monocytes [4] was 0.64%. In addition, the “percentage of non-specifically bound granulocytes (dot plot gate)” value in the series with granulocytes [5] is listed as “reduced”. In addition, the “concentration relative to CMC, formulation in the vial” value in [6] (0.2% in the vial) is given as “> CMC within the conjugate formulation”. Also, the “Empigen BB concentration, formulation in the vial” value in [6] (0.2%, 2 g/L, 279 g/mol) came out at 7.2 mM. For the same compound, in [6] (100 μL WB, 10 μl conjugate), the “concentration relative to CMC during the staining” value is given as “< CMC during the staining”. The “Empigen BB concentration during the staining” value in series [6] (100 μL WB, 10 μl conjugate, dilution factor 11) worked out at 0.65 mM. Further, in the series on monocytes/granulocytes, the “non-specific binding of polymer dye to monocytes/granulocytes” value is “substantially reduced; also recorded: reduced drastically; also recorded: substantial decrease”.

Turning to “BSA-Cy5-ox: oxidized Cy5-BSA, known protein blocker”, the “percentage of non-specifically bound monocytes and granulocytes / controlling non-specific interactions” value with granulocytes/monocytes (FIG. 10) is reported as “inefficient; also recorded: not substantially reduced”.

Take “BSA-ox: oxidized BSA, known protein blocker”: the “percentage of non-specifically bound monocytes and granulocytes / controlling non-specific interactions” value is “inefficient” in the series with granulocytes/monocytes (FIG. 10) and “not substantially reduced” with granulocytes/monocytes (FIG. 10, listed as oxidized BSA).

Values taken from US20240011976A1, “ADDITIVES FOR REDUCING NON-SPECIFIC INTERACTIONS BETWEEN FLUORESCENT POLYMER CONJUGATES AND CELLS IN A BIOLOGICAL SAMPLE” (Beckman Coulter, Inc., priority 2008, published 2024).
